The subject of assay [1] is yeast-induced fever. The experiment in a line: Antipyretic Evaluation (yeast-induced fever in rats). The class given is in vivo, male Sprague-Dawley rats. As to conditions: 300 mg/kg, oral, 19 hours after yeast; temperature one hour after dosing. The protocol: Antipyretic: This activity was evaluated by creating a yeast-induced fever in rats according to a modified method of the procedure described by Loux et al in "Toxicology and Applied Pharmacology", Vol. 22: page 672 (1972). In this assay rats injected with yeast in distilled water were dosed with test compounds, aspirin (positive control) and a vehicle (negative control) and the observed differences in body temperature were analyzed statistically.
Antipyretic activity was evaluated using a modification of the test described by Loux et al, in Toxicology and Applied Pharmacology, 22:672 (1972), that is, yeast-induced fever in rats. Each test group consisted of ten male Sprague-Dawley rats (Charles River Laboratories), weighing 180-225 grams each. Eighteen hours prior to compound administration the rats were weighed and body temperatures were recorded. Food was removed with water available ad libitum. […]
Test compounds suspended in 0.25% methylcellulose (0.25% MC) or olive oil were administered orally by gavage nineteen hours following the yeast injection. Body temperatures were taken and recorded one hour after compound administration. […] The mean temperature of the compound-treated groups, positive control group (Aspirin) and negative control group (vehicle) were calculated at 18 hours and 20 hours. The data was analyzed statistically using a paired-samples Student's t-Test.

Assay [2] deals with Mycobacterium butyricum adjuvant arthritis, hind paw edema. The experiment in a line: Adjuvant Arthritis Assay; Immunomodulatory. In kind it is in vivo, Lewis female rats. As to conditions: 50 mg/kg, oral, Day 5 to 9; edema on Day 15. On the procedure:
Immunomodulatory: This activity was determined by using a Modified Adjuvant Assay procedure in which female rats were injected with Mycobacterium butyricum to induce hind paw edema. The test compounds were administered orally and the difference in volume between dosed and non-dosed paws was determined.
Lewis female rats were injected in the tail subcutaneously with Mycobacterium butyricum (0.75 mg in 0.1 ml light mineral oil, Fisher) on Day Zero. Prior to injection the volumes of the left and right rear paws were measured by mercury displacement. All rats were dosed orally with vehicle or test compounds on Day 5 to 9 inclusive. The volume of both hind paws were determined on Day 15 and the percent inhibitions were calculated based upon average edema on Day 15 relative to the edema mean in the control group.

Assay [3] shares this test system. The experiment in a line: Adjuvant Arthritis Assay: Developing (hind paw edema, rats). As to conditions: 96 h, dosed once daily for 4 days in 0.25% methylcellulose, paw edema on fifth day. In kind it is in vivo, female Lewis rats. The protocol:
Anti-Inflammatory: This activity was evaluated via a modification of the Adjuvant Arthritis Assay (AA) described by S. […] This assay measures the ability of the test compound to antagonize local edema, a characteristic of the inflammatory response. […] The left and right rear paws of female Lewis rats (Charles River Laboratories) weighing 160-180 grams each were measured by mercury displacement prior to injection (Day Zero). Adjuvant arthritis was induced in this rat colony by subcutaneous injection of Mycobacterium butyricum (0.75 mg in 0.1 ml light mineral oil, Fisher) using an automated Cornwall syringe. On days 11-15 post-adjuvant the injected animals with 0.25 to 0.75 ml. paw edema were selected and distributed evenly, according to edema size, into control and experimental groups of ten rats each. Vehicle control and drug treatments were assigned to the groups at random. The assay was performed using a variable dose level for each test compound per kilogram per day in 0.25% methylcellulose vehicle. All animals were dosed once daily for 4 days and on the fifth day both hind paw volumes were again measured using mercury displacement. The hind paw edema was determined for each rat by subtracting the hind paw volume measured on Day Zero from the hind paw volume measured on the fifth day of the study. Group means were determined and the drug effect was calculated as percent inhibition of the hind paw edema according to the following equation: [formula] […] The known anti-inflammatory NAPROXEN was also tested for comparison purposes.

These results are taken from patent publication US5192791A, “Fused ring heterocycles and pharmaceutical compositions containing same” (Biofor, Ltd., priority 1990, dated 1993).

Turning to `CC(=O)Oc1ccccc1C(=O)O` [Aspirin, reference compound], the “Change in Temperature, 18-20 Hour Period” value in assay [1] was -2.05 °C.
For the molecule `CC(C)(C)c1cc(N2CCCC2=O)cc(C(C)(C)C)c1O` [Example 1, 1-(3,5-di-tert-butyl-4-hydroxyphenyl)pyrrolidin-2-one], the “% Inhibition” value in assay [2] was determined as 39%. In addition, the median effective dose (ED50) in assay [3] turned out to be 21 mg/kg. The “Change in Temperature, 18-20 Hour Period” value in assay [1] is -1.55 °C.
`CC(C)(C)c1cc(N2CCCCC2=O)cc(C(C)(C)C)c1O` [Example 2, 1-(3,5-di-tert-butyl-4-hydroxyphenyl)piperidin-2-one]: the 50% effective dose (ED50) in assay [3] came out at 34 mg/kg.
With `COc1ccc2cc([C@H](C)C(=O)O)ccc2c1` [NAPROXEN, reference compound], the median effective dose (ED50) in assay [3] is 28 mg/kg.
